Results published in ChEMBL document CHEMBL4257554, “On the inhibition of capsaicin response in dorsal root ganglion neurons by nobilamide B and analogues: a structure-activity relationship study” (Medchemcomm, 2018).
Non-standard residues stand in square brackets, D forms with d. Residues, ends and D or L forms follow the SMILES beside them. *: point of attachment. d(aThr) = C[C@@H](O)[C@@H](N)C(=O)O; Dhb = C/C=C(\N)C(=O)O; Propionyl = CCC(=O)*

Biological target: Transient receptor potential cation channel subfamily V member 1 (Mus musculus) (UniProt Q704Y3)
Test: Antagonist activity at TRPV1 channel in mouse DRG neurons assessed as inhibition of capsaicin-induced calcium accumulation at 300 uM incubated for 6 mins by Fura-2-AM dye based fluorescence assay relative to control

Chain of Transient receptor potential cation channel subfamily V member 1 (Mus musculus) (Q704Y3 whole entry): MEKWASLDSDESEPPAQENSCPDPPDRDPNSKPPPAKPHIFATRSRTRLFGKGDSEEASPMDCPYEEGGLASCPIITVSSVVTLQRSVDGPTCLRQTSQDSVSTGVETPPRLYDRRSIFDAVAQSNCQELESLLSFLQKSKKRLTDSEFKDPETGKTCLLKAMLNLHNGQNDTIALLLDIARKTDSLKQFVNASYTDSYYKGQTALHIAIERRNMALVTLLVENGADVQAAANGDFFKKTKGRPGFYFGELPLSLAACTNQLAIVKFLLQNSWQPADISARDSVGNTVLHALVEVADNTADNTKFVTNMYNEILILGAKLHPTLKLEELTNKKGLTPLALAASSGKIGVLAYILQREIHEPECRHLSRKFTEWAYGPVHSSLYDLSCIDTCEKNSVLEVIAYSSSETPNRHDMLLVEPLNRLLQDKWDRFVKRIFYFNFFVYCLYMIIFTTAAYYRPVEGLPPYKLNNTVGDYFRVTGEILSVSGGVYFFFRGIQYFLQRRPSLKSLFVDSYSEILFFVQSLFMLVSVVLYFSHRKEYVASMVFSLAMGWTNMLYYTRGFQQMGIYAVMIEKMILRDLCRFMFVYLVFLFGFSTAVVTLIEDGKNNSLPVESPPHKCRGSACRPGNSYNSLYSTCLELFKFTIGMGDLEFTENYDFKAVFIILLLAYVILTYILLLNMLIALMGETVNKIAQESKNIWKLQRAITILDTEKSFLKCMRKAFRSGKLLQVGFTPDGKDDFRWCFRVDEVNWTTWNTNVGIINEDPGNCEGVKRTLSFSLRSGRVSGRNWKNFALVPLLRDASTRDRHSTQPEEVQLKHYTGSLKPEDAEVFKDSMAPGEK

**Q.** Which inhibition does the source give for `C/C=C(\NC(=O)[C@H](C)NC(=O)[C@@H](NC(=O)[C@H](NC(=O)[C@H](C)NC(=O)[C@@H](CC(C)C)NC(=O)[C@@H](Cc1ccccc1)NC(=O)CC)[C@@H](C)O)C(C)C)C(=O)O` here?
**A.** 23.5%

**Q.** With `CCC(=O)N[C@H](Cc1ccccc1)C(=O)N[C@H](CC(C)C)C(=O)N[C@@H](Cc1ccccc1)C(=O)N[C@@H](C(=O)N[C@H](C(=O)N[C@@H](C)C(=O)N[C@@H](C)C(=O)O)C(C)C)[C@@H](C)O` as the compound, how does the inhibition read?
**A.** 35.6%

**Q.** `C/C=C(\NC(=O)[C@H](C)NC(=O)[C@H](C)NC(=O)[C@H](NC(=O)[C@H](Cc1ccccc1)NC(=O)[C@@H](CC(C)C)NC(=O)[C@@H](Cc1ccccc1)NC(=O)CC)[C@@H](C)O)C(=O)O` was tested. Which inhibition did it give?
**A.** 27.8%

**Q.** With `C/C=C(\NC(=O)[C@H](C)NC(=O)[C@@H](NC(=O)[C@H](NC(=O)[C@H](Cc1ccccc1)NC(=O)[C@H](C)NC(=O)[C@@H](Cc1ccccc1)NC(=O)CC)[C@@H](C)O)C(C)C)C(=O)O` as the compound, how does the inhibition read?
**A.** 3.27%

**Q.** With `C/C=C(\NC(=O)[C@H](C)NC(=O)[C@@H](NC(=O)[C@H](NC(=O)[C@H](Cc1ccccc1)NC(=O)[C@@H](CC(C)C)NC(=O)[C@H](C)NC(=O)CC)[C@@H](C)O)C(C)C)C(=O)O` as the compound, how does the inhibition read?
**A.** 6.47%

**Q.** `C/C=C(\NC(=O)[C@H](C)NC(=O)[C@@H](NC(=O)[C@H](C)NC(=O)[C@H](Cc1ccccc1)NC(=O)[C@@H](CC(C)C)NC(=O)[C@@H](Cc1ccccc1)NC(=O)CC)C(C)C)C(=O)O` was tested. Which inhibition did it give?
**A.** 5.38%

**Q.** `C/C=C(\NC(=O)[C@H](C)NC(=O)[C@@H](NC(=O)[C@H](NC(=O)[C@H](Cc1ccccc1)NC(=O)[C@@H](CC(C)C)NC(=O)[C@@H](Cc1ccccc1)NC(=O)CC)[C@@H](C)O)C(C)C)C(=O)O` (Propionyl-[dF][dL]F[d(aThr)]VA[Dhb]-OH) was tested. Which inhibition did it give?
**A.** 33.6%
